Source: patent EP4736861A1, “ORAL COMPOSITION CONTAINING INORGANIC POROUS BODY” (Tanabe Pharma Corporation, priority 2023, dated 2025)

assay: PBPK model: construction and simulation of plasma concentration and urinary excretion; details: PBPK parameter, mice
Text: For the construction, in vivo data from the vehicle group of the previously described "In Vivo Study Using a Choline-Load Fasted Mouse Model" and in vivo data from the single-dose PK study were used.
The following steps were applied for the construction of the PBPK model. • * The liver-to-plasma partition coefficient, blood cell-to-plasma partition coefficient, and plasma protein unbound fraction for d9-TMA and d9-TMAO were cited from the report by Shimizu et al.^1), assuming no species difference. • * The liver volume and hepatic blood flow rate were cited from the report by Yamashita et al.^2). • * Using the data from the single intravenous dose PK study of d9-TMA and d9-TMAO, the PK parameters for d9-TMA and d9-TMAO were estimated. […] For d9-TMA, assuming that adsorption equilibrium is reached in the gastrointestinal tract, it was considered to follow the formula: inhibition ratio of d9-TMA absorption from gastrointestinal tract = theoretical acid amount of unadsorbed zeolite / (water volume in the colon × dissociation constant + theoretical acid amount of unadsorbed zeolite), and the dissociation constant of zeolite and d9-TMA was calculated. The water volume in the colon was cited from the value in SimCYP (V23) manufactured by Certara.

Row | conversion ratio from d9-choline to d9-TMA | SMILES
1 | 0.9324 | [2H]C([2H])([2H])[N+](CCO)(C([2H])([2H])[2H])C([2H])([2H])[2H].[Cl-] [d9-choline]

assay: not given; details: PBPK parameter; from Shimizu et al.; cited from earlier work

Row | SMILES | blood cell-to-plasma partition coefficient | liver-to-plasma partition coefficient | plasma protein unbound fraction
2 | [2H]C([2H])([2H])[N+]([O-])(C([2H])([2H])[2H])C([2H])([2H])[2H] [d9-TMAO] | 0.845 | 0.675 | 0.714
3 | [2H]C([2H])([2H])N(C([2H])([2H])[2H])C([2H])([2H])[2H] [d9-TMA] | 0.719 | 0.752 | 0.9

assay: not given; details: acidic concomitant drugs; source not stated; cited from earlier work

Row | SMILES | pKa
4 | CC(=O)Nc1ccc(CC(=O)O)cc1 [Actarit] | 3.94
5 | Oc1ncnc2[nH]ncc12 [Allopurinol] | 9.50

same assay, conditions: basic concomitant drugs; source not stated; cited from earlier work

Row | SMILES | pKa of conjugate acid
6 | NC(=O)N1c2ccccc2C=Cc2ccccc21 [Carbamazepine] | 7
7 | COc1ccccc1OCCNCC(O)COc1cccc2[nH]c3ccccc3c12 (stereo not shown) [Carvedilol] | 7.8
8 | CCC[C@@H]1C[C@@H](C(=O)N[C@@H]([C@H]2O[C@H](SC)[C@H](O)[C@@H](O)[C@H]2O)[C@@H](C)O)N(C)C1 [Lincomycin] | 7.6
9 | CC12CC3CC(C)(C1)CC(N)(C3)C2 [Memantine] | 10.58
10 | Cc1ncc([N+](=O)[O-])n1CCO [Metronidazole] | 2.6
11 | Clc1ccc(COC(Cn2ccnc2)c2ccc(Cl)cc2Cl)c(Cl)c1 (stereo not shown) [Miconazole] | 5.65
12 | OCCN1C[C@H](O)[C@@H](O)[C@H](O)[C@H]1CO [Miglitol] | 5.9
13 | CN1CCN2c3ncccc3Cc3ccccc3C2C1 (stereo not shown) [Mirtazapine] | 3.71
14 | Cc1nccn1CC1CCc2c(c3ccccc3n2C)C1=O (stereo not shown) [Ondansetron] | 7.4
15 | CCOC(=O)C1=C[C@@H](OC(CC)CC)[C@H](NC(C)=O)[C@@H](N)C1 [Oseltamivir] | 7.75
